Experiments:
[1] = system: proMMP-2 production by THP-1 cell; test: Action of THP-1 cell on hemostatic type proMMP-2 production (ELISA of culture supernatant); assay type: cell-based, human; conditions: THP-1 cells, 24 hr
Experimental: Action of THP-1 Cell on Hemostatic Type proMMP-2 Production
THP-1 cell (human monocytic leukemia cell line) was adjusted to 1×10^7 cells/mL in a culture medium (10% fetal bovine serum/RPMI1640 medium), and dispensed to a 96 well multiplate. This was equilibrated under the conditions of 37° C./5% CO2, and a culture medium containing a test compound was added thereto. After incubation under the conditions of 37° C./5% CO2 for 24 hr, the culture medium was centrifugated and the culture supernatant was collected, which was subjected to the following measurement.
Quantification of proMMP-2 in Culture Supernatant
The proMMP-2 concentration of the collected culture supernatant was quantified using a commercially available measurement reagent (manufactured by GE Healthcare, MMP-2, Human, Biotrak ELISA System).
Calculation of proMMP-2 Suppression Rate
The proMMP-2 suppression rate of the test compound was calculated from the following formula: % suppress=100−((Test/Cont)×100). wherein Cont is proMMP-2 concentration of culture supernatant without addition of a test compound (added with solvent alone) and Test is proMMP-2 concentration of culture supernatant with addition of a test compound.

[2] = system: proMMP-9 production by human TNFα stimulated THP-1 cell; test: Action of human TNFα stimulated THP-1 cell on proMMP-9 production (ELISA of culture supernatant); assay type: cell-based; conditions: THP-1 cells, human TNFα 10 ng/mL, 24 hr; IC50 from 10, 100 and 1,000 nmol/L; read-out: Experimental Example 1 proMMP-9 production suppression (IC50)
Experimental: Action of Human TNFα Stimulated THP-1 Cell on proMMP-9 Production
THP-1 cell (human monocytic leukemia cell line) was adjusted to 1×10^7 cells/mL in a culture medium (10% fetal bovine serum/RPMI1640 medium), and dispensed to a 96 well multiplate. This was equilibrated under the conditions of 37° C./5% CO2, and a culture medium containing human TNFα (final concentration 10 ng/mL) and a test compound was added thereto. After incubation under the conditions of 37° C./5% CO2 for 24 hr, the culture medium was centrifugated and the culture supernatant was collected, which was subjected to the following measurement.
Quantification of proMMP-9 in Culture Supernatant
The proMMP-9 concentration of the collected culture supernatant was quantified using a commercially available measurement reagent (manufactured by GE Healthcare, MMP-9, Human, Biotrak ELISA System).
Calculation of proMMP-9 Suppression Rate
The proMMP-9 suppression rate of the test compound was calculated from the following formula: % suppression=100−((Test−Min)/(Max−Min)×100) wherein Max is proMMP-9 concentration of culture supernatant induced by stimulation with human TNFα, without addition of a test compound (added with solvent alone) • Min is proMMP-9 concentration of culture supernatant without addition of a test compound (added with solvent alone) and without stimulation with human TNFα, and • Test is proMMP-9 concentration of culture supernatant induced by stimulation with human TNFα when a test compound is added.
Furthermore, the concentration of the test compound necessary for suppressing proMMP-9 production by human TNFα stimulated THP-1 cell by 50% (IC50 value) was calculated from 3 points of proMMP-9 suppression rate at test compound concentrations of 10, 100 and 1,000 nmol/L.

[3] = system: rat monoiodoacetic acid-induced osteoarthritis model; test: Suppressive action on articular joints injury of rat monoiodoacetic acid-induced osteoarthritis model; assay type: in vivo; conditions: LEW rat
Experimental: Suppressive Action on Articular Joints Injury of Rat Monoiodoacetic Acid-Induced Osteoarthritis Model
Monoiodoacetic acid solution (0.3 mg/25 μL) was injected into the right hindpaw knee joint cavity of anesthetized rats (LEW, male, 7-week-old). […] On day 7, right hindpaw knee joint was taken from euthanized rats, and fixed with 10% neutral formalin solution. A pathology specimen of knee joint was prepared, stained with Hematoxylin Eosin and Safranine O, and the state of joint cartilage injury was scored under microscopic observation. For articular joint injury scores, changes in each pathological finding in medial condyle of femur and medial condyle of tibia (cartilage surface tuberosity, erosion/ulcer/fibrillation, chondrocyte disorganization/disappearance/hypertrophy, reduction of Safranine staining) were divided into mild, moderate and severe according to the method of Kobayashi et al. (Kobayashi K et al. J. Vet. Med. Sci. 65, 1195 1199 2003), and indicated in the scores of 1, 2 and 3 and totaled. Furthermore, an average of the score of medial condyle of femur and that of medial condyle of tibia was determined and used as an articular joint injury score.

[4] = system: rat dinitrobenzene-induced colitis model; test: Suppressive action on large intestine weight increase of rat dinitrobenzene-induced colitis model; assay type: in vivo; conditions: Wistar rat, 30 mg/kg oral once a day to day 7, measured day 8
Experimental: Suppressive Action on Large Intestine Weight Increase of Rat Dinitrobenzene-Induced Colitis Model
A dinitrobenzene solution (30 mg/0.1 mL) was injected into the large intestine of anesthetized rats (Wistar, male, 6-week-old). A test compound was orally administered once a day from the previous day of the dinitrobenzene injection to day 7 at a dose of 30 mg/kg. On day 8, the large intestine was isolated from euthanized rats, and the wet weight thereof was measured. The large intestine weight was amended to the weight per 100 g body weight of the rats on day 8.

[5] = system: rat adjuvant induced arthritis model; test: Suppressive action on hindpaw edema of rat adjuvant induced arthritis model; assay type: in vivo; conditions: LEW rat, difference of hindpaw volume day 15 vs day 21, in mL (unit assumed)
Experimental: Suppressive Action on Hindpaw Edema of Rat Adjuvant Induced Arthritis Model
Anesthetized rats (LEW, male, 6-week-old) were immunized with M. Butyricum (5 mg/mL) at a dose of 0.1 mL/body by subcutaneous administration from the tail root. […] The test compound was orally administered once a day from immediately after allocation on day 15 to day 20 at doses of 3 and 30 mg/kg, and the hindpaw volume was measured again on day 21. The amount of hindpaw edema was the difference in the amount between hindpaw volume on day 15 and that on day 21.

[6] = 3 mg/kg oral once a day to day 6, scored day 7
[7] = 10 mg/kg oral once a day to day 6, scored day 7

Compound | Experimental Example 2 proMMP-2 production suppression (% suppression, 10 μM) [1] [%] | IC50 [2] [nM] | also measured
Cc1ccc(N2CCN(C(=O)c3c(F)cc(N4CCOC4=O)cc3F)CC2)c(C)c1 [Example 1, 3-{4-[4-(2,4-dimethylphenyl)piperazine-1-carbonyl]-3,5-difluorophenyl}oxazolidin-2-one] | 17.4 | 44 | 
Cc1ccc(N2CCN(C(=O)c3ccc(N4CCOC4=O)cc3C)CC2)c(C)c1 [Example 6, 3-{4-[4-(2,4-dimethylphenyl)piperazine-1-carbonyl]-3-methylphenyl}oxazolidin-2-one] | 12.6 | 59 | 
Cc1ccc(N2CCN(C(=O)c3ccc(N4CCOC4=O)cc3)CC2)c(C)c1 [Example 8, 3-{4-[4-(2,4-dimethylphenyl)piperazine-1-carbonyl]phenyl}oxazolidin-2-one] | 11.6 | 48 | articular joint injury score of compound administration group [3, 6]: 4.4 ± 0.5; large intestine weight (g/100 g body weight) [4]: 0.457 ± 0.031 g/100 g body weight; hindpaw edema volume ([5]; 3 mg/kg oral once a day day 15 to day 20): 0.27 ± 0.17; hindpaw edema volume ([5]; 30 mg/kg oral once a day day 15 to day 20): 0.20 ± 0.18
Cc1ccc(N2CCN(C(=O)c3ccc(N4CCOC4=O)cc3S(C)(=O)=O)CC2)c(C)c1 [Example 11, 3-{4-[4-(2,4-dimethylphenyl)piperazine-1-carbonyl]-3-methanesulfonylphenyl}oxazolidin-2-one] | 12.4 | 40 | 
Cc1ccc(N2CCN(C(=O)c3ccc(N4C(=O)OC[C@H]4CO)cc3S(C)(=O)=O)CC2)c(C)c1 [Example 19, (R)-3-{4-[4-(2,4-dimethylphenyl)piperazine-1-carbonyl]-3-methanesulfonylphenyl}-4-hydroxymethyloxazolidin-2-one] | 22.5 | 11 | 
Cc1ccc(C(=O)C2CCN(C(=O)c3ccc(N4CCOC4=O)nc3)CC2)cc1 [Example 42, 3-{5-[4-(4-methylbenzoyl)piperidine-1-carbonyl]pyridin-2-yl}oxazolidin-2-one] |  |  | articular joint injury score of compound administration group [3, 7]: 3.8 ± 0.7
Cc1cnc(N2CCN(C(=O)c3ccc(N4C(=O)OC[C@H]4C)cc3S(C)(=O)=O)CC2)c(C)c1 [Example 81, (R)-3-{4-[4-(3,5-dimethylpyridin-2-yl)piperazine-1-carbonyl]-3-methanesulfonylphenyl}-4-methyloxazolidin-2-one] |  |  | articular joint injury score of compound administration group [3, 7]: 4.4 ± 0.4
Cc1cnc(N2CCN(C(=O)c3ccc(N4C(=O)OC[C@H]4C)nc3)CC2)c(C)c1.Cl.Cl [Example 109, (R)-3-{5-[4-(3,5-dimethylpyridin-2-yl)piperazine-1-carbonyl]pyridin-2-yl}-4-methyloxazolidin-2-one 2hydrochloride] |  |  | articular joint injury score of compound administration group [3, 6]: 4.1 ± 0.4
